US20020161202A1, “Apo-2DcR” (Genentech, Inc., priority 1997, published 2002)
Where a SMILES comes first, the peptide text is derived from it. [ ]: non-standard residue; d: D form. The star is where a group is joined. Nle = CCCC[C@H](N)C(=O)O; Cbz = O=C(OCc1ccccc1)*; CH2F = FC*

Legend:
HeLa cells [1] = assay: Apo-2L-induced apoptosis in HeLa cells by FACS and its inhibition by soluble Apo-2 ECD; format: cell-based, human
Description: Soluble Apo-2L ([…], prepared as described in Pitti et al., supra) was pre-incubated for 1 hour at room temperature with PBS buffer or affinity-purified Apo-2 ECD (5 μg/ml) together with anti-Flag antibody (Sigma) (1 μg/ml) and added to HeLa cells. After a 5 hour incubation, the cells were analyzed for apoptosis by FACS (as above) (FIG. 11D).

Apo-2L = assay: Co-precipitation assay of Apo-2 ECD-Flag with poly-histidine-tagged Apo-2L; format: binding; settings: Apo-2 ECD-Flag supernatant with 5 μg poly-histidine-tagged soluble Apo-2L; FIG. 10
Chain of Apo-2L (P50591 39-281 limits assumed): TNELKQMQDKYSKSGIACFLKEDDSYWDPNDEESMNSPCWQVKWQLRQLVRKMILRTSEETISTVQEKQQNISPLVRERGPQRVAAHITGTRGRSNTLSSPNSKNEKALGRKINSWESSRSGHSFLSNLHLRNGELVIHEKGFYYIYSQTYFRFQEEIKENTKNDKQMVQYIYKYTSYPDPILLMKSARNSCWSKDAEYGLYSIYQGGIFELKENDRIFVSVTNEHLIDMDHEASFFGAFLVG
Chain of Apo-2L (O14763 56-184 partner limits assumed): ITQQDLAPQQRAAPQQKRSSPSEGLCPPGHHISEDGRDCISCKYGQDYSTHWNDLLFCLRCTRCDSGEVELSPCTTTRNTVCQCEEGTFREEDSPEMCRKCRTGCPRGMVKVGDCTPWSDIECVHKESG
Description: To determine whether Apo-2 and Apo-2L interact or associate with each other, supernatants from mock-transfected 293 cells or from 293 cells transfected with Apo-2 ECD-Flag (described in Example 6 above) (5 ml) were incubated with 5 μg poly-histidine-tagged soluble Apo-2L [Pitti et al., supra] for 30 minutes at room temperature and then analyzed for complex formation by a co-precipitation assay.
The samples were subjected to immunoprecipitation using 25 μl anti-Flag conjugated agarose beads (Sigma) or Nickel-conjugated agarose beads (Qiagen). After a 1.5 hour incubation at 4° C., the beads were spun down and washed four times in phosphate buffered saline (PBS). By using anti-Flag agarose, the Apo-2L was precipitated through the Flag-tagged Apo-2 ECD; by using Nickel-agarose, the Apo-2 ECD was precipitated through the His-tagged Apo-2L. The precipitated proteins were released by boiling the beads for 5 minutes in SDS-PAGE buffer, resolved by electrophoresis on 12% polyacrylamide gels, and then detected by immunoblot with anti-Apo-2L or anti-Flag antibody (2 μg/ml) as described in Marsters et al., J. Biol. Chem., (1997).

Fas/Apo-1 ligand = molecular target: T1, Fas/Apo-1 ligand (Homo sapiens, UniProt P48023); assay: BIACORE analysis of Apo-2 ECD; format: binding
T1 construct: purchased Alexis Biochemicals
T1 sequence (P48023 103-281 limits assumed): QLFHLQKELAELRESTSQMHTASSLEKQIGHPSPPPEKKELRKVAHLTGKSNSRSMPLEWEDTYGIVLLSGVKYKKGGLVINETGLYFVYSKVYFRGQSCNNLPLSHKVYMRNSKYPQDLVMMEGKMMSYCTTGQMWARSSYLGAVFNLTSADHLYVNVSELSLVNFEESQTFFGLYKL
Description: (§1) The binding interaction was further analyzed by purifying Apo-2 ECD from the transfected 293 cell supernatants with anti-Flag beads (see Example 6) and then analyzing the samples on a BIACORE™ instrument. The BIACORE™ analysis indicated a dissociation constant (Kd) of about 1 nM.

TNF-alpha = TNF-alpha (Homo sapiens, UniProt P01375); assay: BIACORE analysis of Apo-2 ECD; format: binding
Chain of TNF-alpha (P01375 77-233 limits assumed): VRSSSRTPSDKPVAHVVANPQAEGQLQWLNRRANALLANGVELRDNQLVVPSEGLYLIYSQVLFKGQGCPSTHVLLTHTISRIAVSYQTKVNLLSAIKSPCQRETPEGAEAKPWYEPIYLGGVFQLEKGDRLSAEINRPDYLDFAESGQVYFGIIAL
Description: as §1

lymphotoxin-alpha = molecular target: T2, lymphotoxin-alpha (Homo sapiens, UniProt P01374); assay: BIACORE analysis of Apo-2 ECD; format: binding
T2 sequence (P01374 35-205): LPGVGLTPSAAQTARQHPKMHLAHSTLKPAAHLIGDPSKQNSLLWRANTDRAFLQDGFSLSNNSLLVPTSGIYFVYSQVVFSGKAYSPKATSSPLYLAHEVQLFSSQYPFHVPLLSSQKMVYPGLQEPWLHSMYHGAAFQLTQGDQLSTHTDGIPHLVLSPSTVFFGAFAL
Description: as §1

NF-κB [2] = assay: NF-κB activation in HeLa cells transfected with receptor plasmids (electrophoretic mobility shift assay); format: cell-based, human; settings: harvested 24 hours after transfection, FIG. 12A
Description: HeLa cells were transfected with pRK5 expression plasmids encoding full-length native sequence Apo-2, DR4 or Apo-3 and harvested 24 hours after transfection. […] Immunol., 153:5274-5284 (1994)], alone or together with a 50-fold excess of unlabelled probe, or with an irrelevant ^32P-labelled synthetic oligonucleotide […] NO: 13). In some samples, antibody to p65/RelA subunits of NF-κB (1 μg/ml; Santa Cruz Biotechnology) was added. DNA binding was analyzed by an electrophoretic mobility shift assay as described by Hsu et al., supra; Marsters et al., supra, and MacKay et al., supra.

NF-κB [3] = assay: NF-κB activity in HeLa cells treated with soluble ligand; format: cell-based, human; settings: 1 μg/ml, FIG. 12B
HeLa cells [4] = assay: Effect of preincubation with inhibitors on Apo-2L-induced apoptosis in HeLa cells (FACS); format: cell-based, human; settings: Apo-2L 1 μg/ml, 5 hour incubation, FIG. 12C
Description: The effects of a NF-κB inhibitor, ALLN (N-acetyl-Leu-Leu-norleucinal) and a […] inhibitor, cyclohexamide, were also tested. The HeLa cells (plated in 6-well dishes) were preincubated with PBS buffer, ALLN (Calbiochem) (40 μg/ml) or cyclohexamide (Sigma) (50 μg/ml) for 1 hour before addition of Apo-2L (1 μg/ml). After a 5 hour incubation, apoptosis was analyzed by FACS (see FIG. 12C).

HeLa cells [5] = assay: Apoptosis induction by Apo-2 in transfected HeLa cells, FACS analysis of phosphatydilserine exposure; format: cell-based, human; settings: inhibitor added at 200 μM at the time of transfection, FIG. 11C
Excerpt: (§2) Because death domains can function as oligomerization interfaces, over-expression of receptors that contain death domains may lead to activation of signaling in the absence of ligand [Frazer et al., supra, Nagata et al., supra]. To determine whether Apo-2 was capable of inducing cell death, human 293 cells or HeLa cells (ATCC CCL 2.2) were transiently transfected by calcium phosphate precipitation (293 cells) or electroporation (HeLa cells) with a pRK5 vector or pRK5-based plasmids encoding Apo-2 and/or CrmA. When applicable, the total amount of plasmid DNA was adjusted by adding vector DNA. Apoptosis was assessed 24 hours after transfection by morphology (FIG. 11A); DNA fragmentation (FIG. 11B); or by FACS analysis of phosphatydilserine exposure (FIG. 11C) as described in Marsters et al., Curr. Biol., 6:1669 (1996).
For samples assayed by FACS, the HeLa cells were co-transfected with pRK5-CD4 as a marker for transfection and apoptosis was determined in CD4-expressing cells; FADD was co-transfected with the Apo-2 plasmid; the data are means±SEM of at least three experiments, as described in Marsters et al., Curr. Biol., 6:1669 (1996). The caspase inhibitors, DEVD-fmk (Enzyme Systems) or z-VAD-fmk (Research Biochemicals Intl.) were added at 200 μM at the time of transfection.

Human 293 cells = assay: Induction of apoptosis by Apo-2 transfection, morphology and DNA fragmentation; format: cell-based; settings: 24 hours after transfection; morphology, DNA fragmentation; FIGS. 11A and 11B
Excerpt: as §2

## Apo-2 ECD immunoadhesin: Apo-2 ECD (amino acids 1-184) fused to the hinge and Fc region of human immunoglobulin G1 heavy chain
HeLa cells [1]; dose-response analysis of inhibition of Apo-2L-induced apoptosis, HeLa cells, FIG. 11E, read-out: half-maximal inhibition
  IC50: ~0.3 nM

## Apo-2 ECD: soluble Apo-2 extracellular domain (amino acid residues 1-184) fused to a C-terminal Flag epitope tag
Apo-2L
  complex formation with Apo-2L: can associate with each other
Fas/Apo-1 ligand
  binding to Fas/Apo-1 ligand: not capable of binding
TNF-alpha
  binding to TNF-alpha: not capable of binding
lymphotoxin-alpha
  binding to lymphotoxin-alpha: not capable of binding
HeLa cells [1]; Apo-2 ECD 5 μg/ml with anti-Flag antibody 1 μg/ml, pre-incubated 1 hour with Apo-2L 0.5 μ/ml, HeLa cells, FIG. 11D
  blocking of Apo-2L action (apoptosis): capable of blocking Apo-2L action

## DR4: TNF receptor family member with cytoplasmic death domain, receptor for Apo-2 ligand; expressed by transfection [reference compound]
NF-κB [2]
  NF-κB activation upon transfection: significant NF-κB activation

## Apo-2L: Apo-2 ligand (also referred to as TRAIL), TNF family cytokine; soluble form as in Pitti et al.
HeLa cells [1]; soluble Apo-2L 0.5 μ/ml, 5 hour incubation, FACS, FIG. 11D
  apoptosis in HeLa cells: marked apoptosis
NF-κB [3]
  NF-κB activation in treated HeLa cells: significant NF-κB activation

## C[C@@H]1C[C@@H]([C@H](O)CC2CC(=O)NC(=O)C2)C(=O)[C@@H](C)C1 [cyclohexamide]
HeLa cells [4]; HeLa cells preincubated 1 hour with cyclohexamide 50 μg/ml
  level of Apo-2L-induced apoptosis: increased

## COC(=O)CC[C@H](NC(=O)[C@H](CC(=O)OC)NC(=O)OCc1ccccc1)C(=O)N[C@H](C(=O)N[C@@H](CC(=O)OC)C(=O)CF)C(C)C [DEVD-fmk]
HeLa cells [5]
  apoptosis induction by Apo-2: blocked

## CCCC[C@@H](C=O)NC(=O)[C@H](CC(C)C)NC(=O)[C@H](CC(C)C)NC(C)=O [ALLN, N-acetyl-Leu-Leu-norleucinal] (Ac-Leu-Leu-[Nle]-aldehyde)
HeLa cells [4]; HeLa cells preincubated 1 hour with ALLN 40 μg/ml
  level of Apo-2L-induced apoptosis: increased

## COC(=O)C[C@H](NC(=O)[C@H](C)NC(=O)[C@@H](NC(=O)OCc1ccccc1)C(C)C)C(=O)CF [z-VAD-fmk] (Cbz-Val-Ala-Asp(OMe)-CH2F)
HeLa cells [5]
  apoptosis induction by Apo-2: blocked

## Apo-2: full-length native sequence human Apo-2, 411 amino acid type I transmembrane protein with death domain; expressed by transfection
Human 293 cells
  apoptosis of transfected 293 cells: marked apoptosis
NF-κB [2]
  NF-κB activation upon transfection: significant NF-κB activation
